Reference: patent US20120220662A1, “PHYTOCEUTICAL COMPOSITIONS FOR PETS” (BIOKAB, S.A. DE C.V., priority 2009, published 2012)

Assay: Accelerated Oxidization Tests (anti-oxidizing ability, peroxides)
Settings: 200 ppm (extract: Nejayote 1000 ppm + 200 ppm Pure Ferulic Acid)
Protocol: The tests of anti-oxidizing ability of the compositions in examples 1, 2 and 3. Said anti-oxidizing ability is the ability which conveys, to a considerable extent, the phytoceutical properties of our composition.
The determination was performed by AOAC Official Method 965.33/(AOCS Method Cd 8-53) 2000 AOAC International.

SMILES: COc1cc(/C=C/C(=O)O)ccc1O [Pure Ferulic Acid, ferulic acid]
- Accelerated Oxidization Tests (peroxides) (Time 0 Hs): 0.00 Meq/Kg
- Accelerated Oxidization Tests (peroxides) (Time 4 Hs): 0.00 Meq/Kg
- Accelerated Oxidization Tests (peroxides) (Time 8 Hs): 0.00 Meq/Kg
- Accelerated Oxidization Tests (peroxides) (Time 16 Hs): 0.00 Meq/Kg
- Accelerated Oxidization Tests (peroxides) (Time 24 Hs): 0.00 Meq/Kg
- Accelerated Oxidization Tests (peroxides) (Time 32 Hs): 3.17 Meq/Kg
- Accelerated Oxidization Tests (peroxides) (Time 40 Hs): 4.19 Meq/Kg
- Accelerated Oxidization Tests (peroxides) (Time 48 Hs): 7.25 Meq/Kg
- Accelerated Oxidization Tests (peroxides) (Time 56 Hs): 13.61 Meq/Kg
- Accelerated Oxidization Tests (peroxides) (Time 64 Hs): 20.18 Meq/Kg
- Accelerated Oxidization Tests (peroxides) (Time 72 Hs): 21.12 Meq/Kg
- Accelerated Oxidization Tests (peroxides) (Time 80 Hs): 24.19 Meq/Kg
- Accelerated Oxidization Tests (peroxides) (Time 88 Hs): 31.16 Meq/Kg
- Accelerated Oxidization Tests (peroxides) (Time 96 Hs): 36.19 Meq/Kg
- Accelerated Oxidization Tests (peroxides) (Time 104 Hs): 51.14 Meq/Kg
- Accelerated Oxidization Tests (peroxides) (Time 112 Hs): 31.05 Meq/Kg
- Accelerated Oxidization Tests (peroxides) (Time 120 Hs): 21.05 Meq/Kg
- Accelerated Oxidization Tests (peroxides) (Time 128 Hs): 0.00 Meq/Kg

SMILES: COc1ccc(O)c(C(C)(C)C)c1 [pure BHA, Butylated Hydroxy Anisole]
- Accelerated Oxidization Tests (peroxides) (Time 0 Hs): 0.00 Meq/Kg
- Accelerated Oxidization Tests (peroxides) (Time 4 Hs): 0.00 Meq/Kg
- Accelerated Oxidization Tests (peroxides) (Time 8 Hs): 0.00 Meq/Kg
- Accelerated Oxidization Tests (peroxides) (Time 16 Hs): 0.00 Meq/Kg
- Accelerated Oxidization Tests (peroxides) (Time 24 Hs): 0.00 Meq/Kg
- Accelerated Oxidization Tests (peroxides) (Time 32 Hs): 0.00 Meq/Kg
- Accelerated Oxidization Tests (peroxides) (Time 40 Hs): 0.00 Meq/Kg
- Accelerated Oxidization Tests (peroxides) (Time 48 Hs): 0.60 Meq/Kg
- Accelerated Oxidization Tests (peroxides) (Time 56 Hs): 0.68 Meq/Kg
- Accelerated Oxidization Tests (peroxides) (Time 64 Hs): 1.09 Meq/Kg
- Accelerated Oxidization Tests (peroxides) (Time 72 Hs): 0.91 Meq/Kg
- Accelerated Oxidization Tests (peroxides) (Time 80 Hs): 1.89 Meq/Kg
- Accelerated Oxidization Tests (peroxides) (Time 88 Hs): 8.03 Meq/Kg
- Accelerated Oxidization Tests (peroxides) (Time 96 Hs): 41.94 Meq/Kg
- Accelerated Oxidization Tests (peroxides) (Time 104 Hs): 45.11 Meq/Kg
- Accelerated Oxidization Tests (peroxides) (Time 112 Hs): 36.12 Meq/Kg
- Accelerated Oxidization Tests (peroxides) (Time 120 Hs): 24.10 Meq/Kg
- Accelerated Oxidization Tests (peroxides) (Time 128 Hs): 6.16 Meq/Kg
